Data from patent publication US8580752B2, “Aromatic amides as potentiators of bioefficacy of anti-infective drugs” (priority 2005, dated 2013).
Where two headings read alike, the source gives them in different places.

Assays:
S aureus ATCC 29213 = assay: MIC by checkerboard method; format: cell-based, Staphylococcus aureus; settings: Staphylococcus aureus
MRSA 33 = assay: MIC by checkerboard method; format: cell-based; settings: Staphylococcus aureus; Mupirocin alone; S aureus MRSA 33; read-out: MIC of Mupirocin
MRSA 450 = assay: MIC by checkerboard method; format: cell-based; settings: Staphylococcus aureus; Mupirocin alone; S aureus MRSA 450; read-out: MIC of Mupirocin
MRSA 15187 = assay: MIC by checkerboard method; format: cell-based; settings: Staphylococcus aureus; Mupirocin alone; S aureus MRSA 15187
MRSA [1] = assay: MIC by checkerboard method, comparison with piperine; format: cell-based, Staphylococcus aureus; settings: Staphylococcus aureus, Tables 5A/5B, Mupirocin alone, read-out: MIC Mupirocin
MRSA [2] = assay: Wound infection treatment in mice; format: in vivo; settings: for Growth / Mean CFU: MRSA wound infection in mice
Procedure: The study was conducted to see the in vivo response of Mupirocin in combination with the above-mentioned potentiator. Wound area of 1.5 cm×1.5 cm was created on the skin of mice by abrasion with sand paper. An inoculum of 10^8 CFU/ml of MRSA was applied on to this wound area. The wound was treated for five days (two applications a day) with mupirocin cream and the other group with a formulation of mupirocin at ¼^th concentration and compound of formula 1a. […] (Table-6).

[3] = system: Staphylococcus aureus, MRSA and Staphylococcus hemolyticus; assay: Decrease in MIC of ciprofloxacin in combination; format: cell-based; settings: bacterial species (Table-2)
[4] = system: S. aureus 29213, MRSA and M. tuberculosis H37Rv; assay: Comparison of potentiating activity with piperine; format: cell-based; settings: Ciprofloxacin, Amikacin, Rifampicin and Mupirocin (Table-5 A & B)
Procedure: Minimum Inhibitory Concentration (MIC) of antibacterial agents (Ciprofloxacin, Amikacin, Rifampicin and Mupirocin) was determined alone and in combination with compound of formula (1a). MIC of the abovementioned antibacterial agents was also determined in combination with piperine.

Acute toxicity study = format: in vivo; settings: mice
Text: Parameters monitored were: Food/water consumption, body weight, organ weight, haematological and clinical chemistry profile.

[5] = system: mice and guinea pig models infected with microorganisms; assay: In vivo infection models, combinations with anti-infective agents
Text: These combinations were also efficacious when tested in in vivo using mice and guinea pig models infected with microorganisms (table-7).

[6] = system: S. aureus ATCC 29213 (wild strain); assay: Ethidium bromide accumulation and efflux; settings: compound 25 μg/ml, ethidium bromide 2 μg/ml
Procedure: Briefly, for measurement of the level of accumulation, both the bacterial strains were grown overnight on Trypticase Soya Agar. Bacterial suspensions were prepared at an optical density at 550 nm of 0.2 in uptake buffer (NaCl, 110 mM; KCl, 7 mM; NH4Cl, 50 mM; Na2HPO4, 0.4 mM; Tris base, 52 mM; glucose, 0.2% adjusted to pH 7.5 with HCl) and were then exposed to ethidium bromide at a concentration of 2 μg/ml. The increase in fluorescence as ethidium bromide entered the cells was recorded fluorometrically with a Perkin-Elmer model LS50 spectrofluorimeter (excitation λ, 530 nm; emission λ, 600 nm) at 30° C.
For determining ethidium bromide loss, bacterial suspensions were prepared as described above and were exposed to ethidium bromide (2 μg/ml) in the presence of compound of formula 1a (25 μg/ml) for 30 min at 37° C. The cells were then pelleted by centrifugation and were resuspended in fresh uptake buffer. The loss of ethidium bromide from the cells was measured as a decrease in fluorescence (FIG. IB)

[7] = 2% Mupirocin, five days, two applications a day
[8] = 0.25% Mupirocin + 0.25% compound of formula 1
[9] = 0.5% Mupirocin + 0.25% compound of formula 1

| Compound | MIC (S aureus ATCC 29213; ATCC29213, Mupirocin alone, read-out: MIC of Mupirocin) | MIC (S aureus ATCC 29213; ATCC29213, Tables 5A/5B, Mupirocin alone, read-out: MIC Mupirocin) | MIC (MRSA 33) | MIC (MRSA 450) | MIC (MRSA 15187) | MIC (MRSA [1]) | Growth (MRSA [2]; [7]) | Mean CFU (MRSA [2]; [7]) | reductions in MIC of ciprofloxacin in combination with the potentiator [3] | potency relative to piperine in reducing the MICs of the antibacterial agents [4] | Growth (MRSA [2]; [8]) | Mean CFU (MRSA [2]; [8]) | Growth (MRSA [2]; [9]) | Mean CFU (MRSA [2]; [9]) | Growth (MRSA [2]; 0.5% Mupirocin + 0.5% compound of formula 1) | wound healing (MRSA [2]; combination of mupirocin with compound of formula-1a vs mupirocin cream, MRSA-infected skin wound of mice, five days) | LD50 (oral) (Acute toxicity study) | efficacy of combinations with anti-infective agents in vivo [5] | accumulation of ethidium bromide ([6]; S. aureus wild type (FIG. IA)) | efflux of ethidium bromide ([6]; S. aureus wild type (FIG. IB)) |
| --- | --- | --- | --- | --- | --- | --- | --- | --- | --- | --- | --- | --- | --- | --- | --- | --- | --- | --- | --- | --- |
| C/C(=C\C(=O)OCCCCCCCCC(=O)O)C[C@@H]1OC[C@H](C[C@@H]2O[C@H]2[C@@H](C)[C@H](C)O)[C@@H](O)[C@H]1O [Mupirocin, reference compound] | 0.12 µg/mL | 0.12 µg/mL | 0.12 µg/mL | 0.25 µg/mL | 0.25 µg/mL | 0.12 µg/mL | 3/5 | 1.08 × 10^4 CFU | – | – | – | – | – | – | – | – | – | – | – | – |
| CCC(/C=C/C(=O)N1CCCCC1)=C\c1ccc2c(c1)OCO2 [compound of formula 1a, 4-ethyl-5-(3,4-methylenedioxyphenyl)-2E,4E-pentadienoic acid piperidine amide] | – | – | – | – | – | – | – | – | Two to more than eight fold | four times more potent than piperine | 4/5 | 2.5 × 10^4 CFU | 1/5 | 4.0 × 10^3 CFU | 0/5 | better wound healing | > 3.0 gm/kg | efficacious | Increased Accumulation | Decreased Efflux |
